Experimental data published in patent publication US6750332B1, “Salicyl alcohol derivatives” (Cognis Deutschland GmbH & Co. KG, priority 1999, dated 2004).

How the values were obtained:
[1] = system: COX-2-mRNA in MSCP 5 cells; assay: Northern Blot analysis of COX-2 mRNA in keratinocytes; assay type: cell-based, mouse; conditions: subconfluent MSCP 5 cells, 500 μM, 45 mins
Protocol: Influencing of the Transcription Activity of HPK II (Human Skin Keratinocytes)
The release of prostaglandins can be influenced by inhibitors at several levels. Besides inhibition of the catalytic activity of the prostaglandin synthase proteins, another possible effect is on the messenger RNA of the cyclooxygenases. […] As a negative control, the cells were incubated for 45 minutes in medium containing only the solubilizer acetone (0.25%) but no test substance for the same recorded RNA concentration.

[2] = system: human HPKII keratinocytes; assay: Cytotoxicity, MTT test in human skin keratinocytes; assay type: cell-based; conditions: for toxicity to the cells (MTT test): human HPKII keratinocytes, concentrations showing inhibition of prostaglandin synthesis, incubation 1.5 or 20 h, confluent or subconfluent; for influence on the vitality of skin cells (keratinocytes), FIG. 1: incubated 20 h in culture medium, then MTT reduction test, cell line not given
Text: (§1) Cytotoxicity (in Mouse or Human Skin Keratinocytes, MSCP 5 or HPK II)
(§2) The toxicity of the substances was investigated by the MTT Test (Mosmann 1983) in cell cultures. This test is based on the conversion of the yellow tetrazolium salt MTT into the violet dye formazane. The reaction takes place only in living cells through the succinate dehydrogenase located in the inner mitochondrial membranes. On account of the potential use in cosmetic or pharmaceutical products, skin cells (human HPKII or mouse MSCP 5 keratinocytes) were used as the test system. […] The effect of the substances on the keratinocytes was independent of the time (incubation time 1.5 or 20 h), the growth state (confluent or subconfluent) and the organism (mouse or human).
(§3) The substances were dissolved in the culture medium and incubated with the cells for 20 h. The MTT reduction test was then carried out with fresh medium without test components.

[3] = system: mouse MSCP 5 keratinocytes; assay: Cytotoxicity, MTT test in mouse skin keratinocytes; assay type: cell-based; conditions: concentrations showing inhibition of prostaglandin synthesis, incubation 1.5 or 20 h, confluent or subconfluent
Text: as §1, §2, §3

[4] = system: prostaglandin synthesis in MSCP5 cells; assay: Inhibition of prostaglandin synthesis/release in keratinocytes (14C-arachidonic acid labelling); assay type: cell-based, mouse; conditions: 10 μm, incubated 2 hours
Protocol: Inhibition of Prostaglandin Synthesis by Salicin Derivatives (in Mouse or Human Skin Keratinocytes MSCP 5 or HPK II)
The cells were marked for 16 hours with 0.2 μCi ^14C-arachidonic acid ml^−1 medium. The test substances were added in fresh medium with increasing concentrations and incubated for 2 hours. In the Figure, the substances have the following meanings:
In the positive control NS398 (10 μm) for MSCP5 cells, prostaglandin synthesis is reduced by 85%. The prostaglandins were identified by comparison with reference substances and quantified by radiosensitometry. The result is expressed as the average value of three measurement points: MSCP 5: 100%=201 cpm; HPK II: 100%=63 cpm.

[5] = HLB value (ratio of hydrophilic to hydrophobic component); assay type: physicochemical
Text: The salicyl alcohol derivatives according to the invention have valuable biological activities such as, for example, anti-inflammatory, antipyretic, antiphlogistic or analgesic effects. Thus, prostaglandin synthesis is inhibited to a greater extent with the compounds according to the invention than, for example, with compounds known from the literature, such as salicin, which is associated with the greater lipophilia of the compounds according to the invention. The better effect is dependent inter alia on efficient absorption by the cell membranes of the keratinocytes. The lipid solubility of glycosidic compounds derives from the ratio of hydrophilic component to hydrophobic component which is described by the HLB value. Salicin which has an HLB value of about 12 is more of a water-soluble molecule whereas salicin esters with HLB values of, in some cases, well below 10 are more liposoluble molecules.

Row | Structure (SMILES) | COX-2-mRNA steady state concentration by comparison with untreated cells [1] | toxicity to the cells (MTT test) [2] | influence on the vitality of skin cells (keratinocytes), FIG. 1 [2] | toxicity to the cells (MTT test) [3] | reduction of prostaglandin synthesis [4] | HLB value [5]
1 | O=C(Cc1ccc(O)cc1)OC[C@H]1O[C@@H](Oc2ccccc2CO)[C@H](O)[C@@H](O)[C@@H]1O [p-OH-phenyl acetyl salicin, 6-O-p-OH-phenylacetyl-([2-hydroxymethyl)phenyl]-β-D-glucopyranoside] | greatly reduced | non-toxic | minimal | non-toxic | – | –
2 | CS(=O)(=O)Nc1ccc([N+](=O)[O-])cc1OC1CCCCC1 [NS398] | – | – | – | – | 85% | –
3 | O=C(CCc1ccccc1)OC[C@H]1O[C@@H](Oc2ccccc2CO)[C@H](O)[C@@H](O)[C@@H]1O [phenylpropionyl salicin, 6-O-phenylpropionyl-[2-(hydroxymethyl)phenyl]-β-D-glucopyranoside] | – | non-toxic | minimal | non-toxic | – | –
4 | OCc1ccccc1O[C@@H]1O[C@H](CO)[C@@H](O)[C@H](O)[C@H]1O [Salicin, [2-(hydroxymethyl)phenyl]-β-D-glucopyranoside] | – | – | – | – | – | about 12
